According to PubChem BioAssay (NCI):
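Following 48 hours of exposure in 96-well plates, responses at five concentrations were used to interpolate endpoints linearly. TGI is the concentration that stops growth completely.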

What was measured:
Experiment in all cases: inhibition of tumour cell growth, NCI panel, 48 h
EKVX NSCLC = system: EKVX NSCLC
HOP-62 NSCLC = system: HOP-62 NSCLC
NCI-H226 lung = system: NCI-H226 lung
SN12C renal = system: SN12C renal
SNB-19 CNS = system: SNB-19 CNS
T-47D breast = system: T-47D breast
UACC-257 melanoma = system: UACC-257 melanoma
NCI-H23 lung = system: NCI-H23 lung
TK-10 renal = system: TK-10 renal
OVCAR-5 ovarian = system: OVCAR-5 ovarian
MDA-MB-231 breast = system: MDA-MB-231 breast
ACHN renal = system: ACHN renal
OVCAR-4 ovarian = system: OVCAR-4 ovarian
PC-3 prostate = system: PC-3 prostate
HCC-2998 colon = system: HCC-2998 colon
HCT-15 colon = system: HCT-15 colon
NCI/ADR-RES ovarian = system: NCI/ADR-RES ovarian
MCF7 breast = system: MCF7 breast
SW-620 colon = system: SW-620 colon
OVCAR-3 ovarian = system: OVCAR-3 ovarian
HOP-92 NSCLC = system: HOP-92 NSCLC
SF-268 CNS = system: SF-268 CNS
SF-295 CNS = system: SF-295 CNS
RPMI-8226 leukemia = system: RPMI-8226 leukemia
SK-MEL-28 melanoma = system: SK-MEL-28 melanoma
CAKI-1 renal = system: CAKI-1 renal
786-0 renal = system: 786-0 renal
NCI-H522 lung = system: NCI-H522 lung
DU-145 prostate = system: DU-145 prostate
HL-60(TB) leukemia = system: HL-60(TB) leukemia
SNB-75 CNS = system: SNB-75 CNS
MDA-MB-435 = system: MDA-MB-435
SK-OV-3 ovarian = system: SK-OV-3 ovarian
RXF 393 renal = system: RXF 393 renal
HCT-116 colon = system: HCT-116 colon
BT-549 breast = system: BT-549 breast
SF-539 CNS = system: SF-539 CNS
SK-MEL-2 melanoma = system: SK-MEL-2 melanoma
MOLT-4 leukemia = system: MOLT-4 leukemia
A498 renal = system: A498 renal
HS 578T breast = system: HS 578T breast
CCRF-CEM leukemia = system: CCRF-CEM leukemia
MALME-3M melanoma = system: MALME-3M melanoma
UO-31 renal = system: UO-31 renal
UACC-62 melanoma = system: UACC-62 melanoma
COLO 205 colon = system: COLO 205 colon
HT29 colon = system: HT29 colon
M14 melanoma = system: M14 melanoma
A549 NSCLC = system: A549 NSCLC
U251 CNS = system: U251 CNS
SR leukemia = system: SR leukemia
SK-MEL-5 melanoma = system: SK-MEL-5 melanoma
KM12 colon = system: KM12 colon
IGROV1 ovarian = system: IGROV1 ovarian
LOX IMVI melanoma = system: LOX IMVI melanoma
OVCAR-8 ovarian = system: OVCAR-8 ovarian
K-562 leukemia = system: K-562 leukemia
NCI-H460 lung = system: NCI-H460 lung

Cc1ccccc1N1C(N)=C(C#N)C(C#N)(C#N)C1c1ccccc1 (stereo not drawn)
TGI (EKVX NSCLC): 42.8 µM
TGI (HOP-62 NSCLC): 42.5 µM
TGI (NCI-H226 lung): 38.8 µM
TGI (SN12C renal): 59 µM
TGI (SNB-19 CNS): 41.2 µM
TGI (T-47D breast): 31 µM
TGI (UACC-257 melanoma): 32 µM
TGI (NCI-H23 lung): 38.6 µM
TGI (TK-10 renal): 28.4 µM
TGI (OVCAR-5 ovarian): 41.5 µM
TGI (MDA-MB-231 breast): 30.8 µM
TGI (ACHN renal): 35.1 µM
TGI (OVCAR-4 ovarian): 40.9 µM
TGI (PC-3 prostate): 51 µM
TGI (HCC-2998 colon): 32.4 µM
TGI (HCT-15 colon): 35.9 µM
TGI (NCI/ADR-RES ovarian): 42.2 µM
TGI (MCF7 breast): 42.6 µM
TGI (SW-620 colon): 31.7 µM
TGI (OVCAR-3 ovarian): 35.6 µM
TGI (HOP-92 NSCLC): 35.9 µM
TGI (SF-268 CNS): 45.7 µM
TGI (SF-295 CNS): 68.9 µM
TGI (RPMI-8226 leukemia): 45.2 µM
TGI (SK-MEL-28 melanoma): 36.5 µM
TGI (CAKI-1 renal): > 100 µM
TGI (786-0 renal): 32.3 µM
TGI (NCI-H522 lung): 32.1 µM
TGI (DU-145 prostate): 30.8 µM
TGI (HL-60(TB) leukemia): 44.2 µM
TGI (SNB-75 CNS): 46 µM
TGI (MDA-MB-435): 35.4 µM
TGI (SK-OV-3 ovarian): 86.6 µM
TGI (RXF 393 renal): 33.9 µM
TGI (HCT-116 colon): 33.6 µM
TGI (BT-549 breast): 28.8 µM
TGI (SF-539 CNS): 37.9 µM
TGI (SK-MEL-2 melanoma): 55.3 µM
TGI (MOLT-4 leukemia): 39.3 µM
TGI (A498 renal): 33.7 µM
TGI (HS 578T breast): 58 µM
TGI (CCRF-CEM leukemia): 36.7 µM
TGI (MALME-3M melanoma): 32.6 µM
TGI (UO-31 renal): 31.2 µM
TGI (UACC-62 melanoma): 37.7 µM
TGI (COLO 205 colon): 33.4 µM
TGI (HT29 colon): 34.2 µM
TGI (M14 melanoma): 45 µM
TGI (A549 NSCLC): 62.7 µM
TGI (U251 CNS): 31.9 µM
TGI (SR leukemia): 60.4 µM
TGI (SK-MEL-5 melanoma): 30.1 µM
TGI (KM12 colon): 32.6 µM
TGI (IGROV1 ovarian): 33.9 µM
TGI (LOX IMVI melanoma): 32.7 µM
TGI (OVCAR-8 ovarian): 38.4 µM

COC(=O)CCC(C)[C@H]1CCC2C3C(C[C@H](OC(C)=O)[C@@]21C)[C@@]1(C)CCC2(C[C@H]1C[C@H]3OC(C)=O)OOC1(CCC(C(C)(C)C)CC1)OO2 (stereo partly drawn)
TGI (EKVX NSCLC): 30 µM
TGI (HOP-62 NSCLC): 29 µM
TGI (NCI-H226 lung): > 100 µM
TGI (SN12C renal): > 100 µM
TGI (SNB-19 CNS): > 100 µM
TGI (T-47D breast): > 100 µM
TGI (UACC-257 melanoma): > 100 µM
TGI (NCI-H23 lung): > 100 µM
TGI (TK-10 renal): > 100 µM
TGI (OVCAR-5 ovarian): > 100 µM
TGI (MDA-MB-231 breast): > 100 µM
TGI (ACHN renal): > 100 µM
TGI (OVCAR-4 ovarian): > 100 µM
TGI (PC-3 prostate): > 100 µM
TGI (HCC-2998 colon): > 100 µM
TGI (HCT-15 colon): > 100 µM
TGI (NCI/ADR-RES ovarian): > 100 µM
TGI (MCF7 breast): > 100 µM
TGI (SW-620 colon): > 100 µM
TGI (K-562 leukemia): > 100 µM
TGI (OVCAR-3 ovarian): > 100 µM
TGI (HOP-92 NSCLC): > 100 µM
TGI (SF-268 CNS): > 100 µM
TGI (SF-295 CNS): > 100 µM
TGI (RPMI-8226 leukemia): 45.2 µM
TGI (SK-MEL-28 melanoma): > 100 µM
TGI (CAKI-1 renal): > 100 µM
TGI (786-0 renal): > 100 µM
TGI (NCI-H522 lung): > 100 µM
TGI (DU-145 prostate): > 100 µM
TGI (HL-60(TB) leukemia): > 100 µM
TGI (SNB-75 CNS): > 100 µM
TGI (MDA-MB-435): > 100 µM
TGI (SK-OV-3 ovarian): > 100 µM
TGI (RXF 393 renal): > 100 µM
TGI (HCT-116 colon): > 100 µM
TGI (BT-549 breast): > 100 µM
TGI (SF-539 CNS): > 100 µM
TGI (SK-MEL-2 melanoma): > 100 µM
TGI (MOLT-4 leukemia): > 100 µM
TGI (A498 renal): > 100 µM
TGI (HS 578T breast): > 100 µM
TGI (CCRF-CEM leukemia): > 100 µM
TGI (MALME-3M melanoma): > 100 µM
TGI (UO-31 renal): 29 µM
TGI (COLO 205 colon): > 100 µM
TGI (HT29 colon): > 100 µM
TGI (M14 melanoma): > 100 µM
TGI (NCI-H460 lung): > 100 µM
TGI (A549 NSCLC): > 100 µM
TGI (U251 CNS): > 100 µM
TGI (SR leukemia): > 100 µM
TGI (SK-MEL-5 melanoma): > 100 µM
TGI (KM12 colon): > 100 µM
TGI (IGROV1 ovarian): 48.8 µM
TGI (LOX IMVI melanoma): > 100 µM
TGI (OVCAR-8 ovarian): > 100 µM
